55 compounds from US8541455B2, “Derivatives of 2-pyridin-2-yl-pyrazol-3(2H)-one, preparation and therapeutic use thereof as HIF activators” (Sanofi, priority 2008, dated 2013) can be followed below.

Counter-ions that a name gives are not always drawn.

`CCOC(=O)CC(c1ccccc1)c1c[nH]n(-c2ccc(S(=O)(=O)NC(C)(C)C)cn2)c1=O` (stereo not shown) [Compound 155] showed a melting point of 130 °C.

The compound `Cc1[nH]n(-c2ccc(S(=O)(=O)N(C)C)cn2)c(=O)c1Cc1cccnc1` [Compound 66, N,N-dimethyl-6-[3-methyl-5-oxo-4-(pyridin-3-ylmethyl)-2,5-dihydro-1H-pyrazol-1-yl]pyridine-3-sulfonamide] returned a melting point of 212 °C.

In the case of `COC(=O)CC(c1ccccc1)c1c[nH]n(-c2ccc(S(=O)(=O)N(C)C3CCCC3)cn2)c1=O` (stereo not shown) [Compound 114], the melting point was found to be 80 °C.

The compound `COC(=O)[C@H]1CCC[C@H]1N(C)S(=O)(=O)c1ccc(-n2[nH]cc(Cc3cccnc3)c2=O)nc1` (as salt: HCl) [Compound 131] registered a melting point of 156 °C.

Compound `COC(=O)C(c1ccccc1)c1c[nH]n(-c2ccc(S(=O)(=O)NC(C)(C)C)cn2)c1=O` (stereo not shown) [Compound 113, methyl {2-[5-(tert-butylsulfamoyl)pyridin-2-yl]-3-oxo-2,3-dihydro-1H-pyrazol-4-yl}(phenyl)acetate] had a melting point of 66 °C.

Take `CCN(c1ccccc1)S(=O)(=O)c1ccc(-n2[nH]c(C)c(Cc3cncc(OC)c3)c2=O)nc1` [Compound 86]: the melting point was 138 °C.

With `O=c1c(Cc2ccccc2)c[nH]n1-c1ccc(S(=O)(=O)NCCO)cn1` [Compound 157], the melting point was 180 °C.

`Cc1[nH]n(-c2ccc(S(=O)(=O)c3ccccc3)cn2)c(=O)c1Cc1cccnc1` [Compound 197, 5-methyl-2-[5-(phenylsulfonyl)pyridin-2-yl]-4-(pyridin-3-ylmethyl)-1,2-dihydro-3H-pyrazol-3-one]: the melting point was found to be 176 °C.

`Cc1[nH]n(-c2ccccn2)c(=O)c1Cc1ccncc1` (as salt: HCl) [Compound 176]: the melting point came to 208 °C.

Compound `COC(=O)c1ccc(-n2[nH]c(C)c(Cc3ccccc3Cl)c2=O)nc1` (as salt: HCl) [Compound 170] displayed a melting point of 258 °C.

`Cc1[nH]n(-c2ccc(S(=O)(=O)N(C)C3CC3)cn2)c(=O)c1Cc1cccnc1` (as salt: HCl) [Compound 95] displayed a melting point of 138 °C.

Regarding `CN(C)CCCN(C1CCCC1)S(=O)(=O)c1ccc(-n2[nH]cc(Cc3ccccc3)c2=O)nc1` (as salt: HCl) [Compound 123, 6-(4-benzyl-5-oxo-2,5-dihydro-1H-pyrazol-1-yl)-N-cyclopentyl-N-[3-(dimethylamino)propyl]pyridine-3-sulfonamide hydrochloride], the melting point was determined as 230 °C.

In the case of `CCN(c1ccccc1)S(=O)(=O)c1ccc(-n2[nH]cc(Cc3cncc(OC)c3)c2=O)nc1.Cl`, the melting point was 136 °C.

`CN(c1ccccc1)S(=O)(=O)c1ccc(-n2[nH]cc(Cc3ccccc3)c2=O)nc1` [Compound 153] yielded a melting point of 198 °C.

With `CCN(c1ccccc1)S(=O)(=O)c1ccc(-n2[nH]c(C)c(Cc3ccccc3C(=O)OC)c2=O)nc1` [Compound 116], the melting point amounted to 146 °C.

Turning to `CN(C1CCCC1)S(=O)(=O)c1ccc(-n2[nH]cc(Cc3ccncc3)c2=O)nc1` (as salt: HCl) [Compound 120], the melting point came to 130 °C.

With `CCN(c1ccccc1)S(=O)(=O)c1ccc(-n2[nH]c(C)c(Cc3cccc(C(=O)OC)c3)c2=O)nc1` [Compound 111], the melting point turned out to be 172 °C.

On to `Cc1[nH]n(-c2ccccn2)c(=O)c1Cc1ccccc1C#N` [Compound 172], for which the melting point is 157 °C.

For the compound `CCN(c1ccccc1)S(=O)(=O)c1ccc(-n2[nH]c(C)c(Cc3ccc(OCCOC)cc3)c2=O)nc1` [Compound 61], the melting point is 176 °C.

Compound `CC(C)(C)NS(=O)(=O)c1ccc(-n2[nH]cc(Cc3ccncc3)c2=O)nc1` [Compound 150] came in with a melting point of 226 °C.

Compound `COC(C)(C)CNS(=O)(=O)c1ccc(-n2[nH]cc(Cc3ccccc3)c2=O)nc1` (as salt: HCl) [Compound 141] had a melting point of 194 °C.

For the compound `CN(C1CCCC1)S(=O)(=O)c1ccc(-n2[nH]cc(Cc3cccnc3)c2=O)nc1` (as salt: HCl) [Compound 117], the melting point worked out at 124 °C.

As for `CCc1[nH]n(-c2ccccn2)c(=O)c1Cc1ccccc1` [Compound 195], the melting point is 76 °C.

Compound `CCN(c1ccccc1)S(=O)(=O)c1ccc(-n2[nH]cc(Cc3cccnc3)c2=O)nc1` (as salt: HCl) [Compound 99] gave a melting point of 142 °C.

Consider `CCN(c1ccccc1)S(=O)(=O)c1ccc(-n2[nH]c(C)c(Cc3cccc(OC)c3)c2=O)nc1` [Compound 55], for which the melting point worked out at 146 °C.

Take `Cc1[nH]n(-c2ccccn2)c(=O)c1Cc1ccc(C(F)(F)F)cc1` [Compound 186]: the melting point turned out to be 94 °C.

As for `CCN(c1ccccc1)S(=O)(=O)c1ccc(-n2[nH]c(C)c(Cc3ccc(N(C)C)cc3)c2=O)nc1` [Compound 50], the melting point turned out to be 182 °C.

On to `Cc1[nH]n(-c2ccccn2)c(=O)c1Cc1cccnc1` [Compound 183], for which the melting point turned out to be 80 °C.

Compound `COc1cc(Cc2c(C)[nH]n(-c3ccccn3)c2=O)cc(OC)c1` [Compound 179] gave a melting point of 96 °C.

For `CCN(c1ccccc1)S(=O)(=O)c1ccc(-n2[nH]c(C)c(Cc3ccc(OCCN(C)C)cc3)c2=O)nc1` [Compound 49], the melting point was found to be 178 °C.

As to `CCN(c1ccccc1)S(=O)(=O)c1ccc(-n2[nH]c(C)c(Cc3cccc(OCCN(C)C)c3)c2=O)nc1` (as salt: hydrochloride) [Compound 56, 6-(4-{3-[2-(dimethylamino)ethoxy]benzyl}-3-methyl-5-oxo-2,5-dihydro-1H-pyrazol-1-yl)-N-ethyl-N-phenylpyridine-3-sulfonamide hydrochloride], the melting point is 124 °C.

With `Cc1[nH]n(-c2ccc(S(=O)(=O)N(C(C)C)C(C)C)cn2)c(=O)c1Cc1ccc(Cl)cc1Cl` [Compound 15], the melting point was determined as 226 °C.

As for `CCC(C)(C)NS(=O)(=O)c1ccc(-n2[nH]cc(Cc3cccnc3)c2=O)nc1` (as salt: HCl) [Compound 137], the melting point came to 126 °C.

The compound `COc1cncc(Cc2c(C)[nH]n(-c3ccc(S(=O)(=O)N(C)C(C)(C)C)cn3)c2=O)c1` [Compound 102] had a melting point of 84 °C.

The compound `CN1CCC(N(C)S(=O)(=O)c2ccc(-n3[nH]cc(Cc4ccccc4)c3=O)nc2)C1` (stereo not shown) (as salt: HCl) [Compound 139] came in with a melting point of 130 °C.

In the case of `COc1ccc(OC)c(Cc2c(C)[nH]n(-c3ccccn3)c2=O)c1` [Compound 184], the melting point worked out at 62 °C.

With `Cc1[nH]n(-c2ccccn2)c(=O)c1Cc1cccc(N(C)C)c1` (as salt: HCl) [Compound 190], the melting point was found to be 132 °C.

`CCN(c1ccccc1)S(=O)(=O)c1ccc(-n2[nH]c(C)c(Cc3cccc(OC)n3)c2=O)nc1` [Compound 78] returned a melting point of 174 °C.

`CN(C)CC(C)(C)NS(=O)(=O)c1ccc(-n2[nH]cc(Cc3ccccc3)c2=O)nc1` (as salt: HCl) [Compound 152]: the melting point is 230 °C.

For `CCN(c1ccccc1)S(=O)(=O)c1ccc(-n2[nH]c(C)c(Cc3cccnc3)c2=O)nc1` (as salt: hydrochloride) [Compound 43], the melting point is 128 °C.

In turn, `O=c1c(Cc2ccccc2)c[nH]n1-c1ccc(S(=O)(=O)N(C[C@@H](O)CO)C2CCCC2)cn1` [Compound 142, 6-(4-benzyl-5-oxo-2,5-dihydro-1H-pyrazol-1-yl)-N-cyclopentyl-N-[(2R)-2,3-dihydroxypropyl]pyridine-3-sulfonamide] registered a melting point of 184 °C.

The compound `CCNS(=O)(=O)c1ccc(-n2[nH]c(C)c(Cc3cccnc3)c2=O)nc1` (as salt: HCl) [Compound 89] yielded a melting point of 196 °C.

In the case of `CN(C(C)(C)C)S(=O)(=O)c1ccc(-n2[nH]cc(Cc3ccccc3)c2=O)nc1` [Compound 100], the melting point turned out to be 186 °C.

In turn, `CCN(c1ccccc1)S(=O)(=O)c1ccc(-n2[nH]c(C)c(Cc3ccccc3OC)c2=O)nc1` [Compound 57] gave a melting point of 108 °C.

`CCN(C1CCCC1)S(=O)(=O)c1ccc(-n2[nH]cc(Cc3cccnc3)c2=O)nc1` (as salt: HCl) [Compound 115] had a melting point of 110 °C.

Compound `Cc1[nH]n(-c2ccc(S(=O)(=O)Nc3ccccc3)cn2)c(=O)c1Cc1cccnc1` (as salt: HCl) [Compound 90] gave a melting point of 154 °C.

On to `COc1ccncc1Cc1c[nH]n(-c2ccc(S(=O)(=O)N(C)C3CCCC3)cn2)c1=O` (as salt: HCl) [Compound 144], for which the melting point turned out to be 40 °C.

Take `CCN(c1ccccc1)S(=O)(=O)c1ccc(-n2[nH]cc(Cc3ccccc3)c2=O)nc1` (as salt: HCl) [Compound 93, 6-(4-benzyl-5-oxo-2,5-dihydro-1H-pyrazol-1-yl)-N-ethyl-N-phenylpyridine-3-sulfonamide]: the melting point stood at 180 °C.

Take `COc1ccccc1Cc1c(C)[nH]n(-c2ccccn2)c1=O` [Compound 192]: the melting point turned out to be 254 °C.

Turning to `Cc1[nH]n(-c2ccccn2)c(=O)c1Cc1ccncc1` [Compound 175], the melting point is 162 °C.

With `CCN(C1CCCC1)S(=O)(=O)c1ccc(-n2[nH]cc(Cc3ccncc3)c2=O)nc1` (as salt: HCl) [Compound 119], the melting point turned out to be 115 °C.

Consider `CC(C)(C)NS(=O)(=O)c1ccc(-n2[nH]cc(Cc3cccnc3)c2=O)nc1` [Compound 98A, N-tert-butyl-6-[5-oxo-4-(pyridin-3-ylmethyl)-2,5-dihydro-1H-pyrazol-1-yl]pyridine-3-sulfonamide], for which the melting point was determined as 220 °C.

`CC(C)(C)COC(=O)c1ccc(-n2[nH]cc(Cc3cccnc3)c2=O)nc1` [Compound 198, 2,2-dimethylpropyl 6-[5-oxo-4-(pyridin-3-ylmethyl)-2,5-dihydro-1H-pyrazol-1-yl]pyridine-3-carboxylate] came in with a melting point of 160 °C.

Regarding `Cc1[nH]n(-c2ccccn2)c(=O)c1Cc1cccc(C(F)(F)F)c1` [Compound 185], the melting point is 78 °C.

On to `COc1ccc(Cc2c(C)[nH]n(-c3ccc(S(=O)(=O)N(C)C(C)(C)C)cn3)c2=O)nc1` [Compound 160], for which the melting point stood at 165 °C.

For orientation: melting point means the temperature of the solid-liquid transition.
